Key:
Assay type in all cases: cell-based
Citrobacter diversus = test: MIC against Gram-negative bacteria: Citrobacter diversus; settings: 5×10^5 CFU/mL; for MIC (μg/mL) C. diversus / MIC against C. diversus: Citrobacter diversus
In short: (§1)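 First, colonies from LB agar were grown in LB at 37° C, 185 rpm, to McFarland turbidity 0.5, then centrifuged and resuspended in fresh LB. Next, wells received 5×10^5 CFU/mL bacteria plus two-fold serially diluted EGF domain protein (triplicate). Finally, plates were shaken at 37° C and the no-growth concentration taken as MIC.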

Enterobacter cloacae = test: MIC against Gram-negative bacteria: Enterobacter cloacae; settings: 5×10^5 CFU/mL; for MIC (μg/mL) E. cloacae / MIC against E. cloacae: Enterobacter cloacae
In short: as §1

E. coli DH5α = test: Antibacterial activity: MIC and growth curve against E. coli DH5α in 96-well plate; settings: minimal inhibitory concentration against E. coli DH5α; 96-well plate, 5×10^5 CFU/mL, 37° C., judged after 8 h
In short: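 Log-phase DH5α (OD600 about 0.5, 37° C, 185 rpm in LB) was pelleted, resuspended in fresh LB and seeded at 5×10^5 CFU/mL with recombinant protein at 50, 25 and 12.5 μg/mL (two-fold series), in triplicate. Plates were shaken at 175 rpm, 37° C, and OD600 was read every 30 min. MIC was the lowest concentration with no growth.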

Moraxella catarrhalis = test: MIC against Gram-negative bacteria: Moraxella catarrhalis; settings: 5×10^5 CFU/mL; for MIC (μg/mL) M. catarrhalis / MIC against M. catarrhalis: Moraxella catarrhalis
In short: as §1

Serratia marcescens = test: MIC against Gram-negative bacteria: Serratia marcescens; settings: 5×10^5 CFU/mL; for MIC (μg/mL) S. marcescens / MIC against S. marcescens: Serratia marcescens
In short: as §1

Proteus mirabilis = test: MIC against Gram-negative bacteria: Proteus mirabilis; settings: 5×10^5 CFU/mL; for MIC (μg/mL) P. mirabilis / MIC against P. mirabilis: Proteus mirabilis
In short: as §1

Klebsiella pneumonia = test: MIC against Gram-negative bacteria: Klebsiella pneumonia; settings: 5×10^5 CFU/mL; for MIC (μg/mL) K. pneumonia / MIC against K. pneumonia: Klebsiella pneumonia
In short: as §1

Pseudomonas aeruginosa = test: MIC against Gram-negative bacteria: Pseudomonas aeruginosa; settings: 5×10^5 CFU/mL; for MIC (μg/mL) P. aeruginosa / MIC against P. aeruginosa: Pseudomonas aeruginosa
In short: as §1

E. coli BL21 = test: MIC against Gram-negative bacteria: E. coli BL21; settings: 5×10^5 CFU/mL
In short: as §1

Aeromonas hydrophila = test: MIC against Gram-negative bacteria: Aeromonas hydrophila; settings: 5×10^5 CFU/mL; for MIC (μg/mL) A. hydrophila / MIC against A. hydrophila: Aeromonas hydrophila
In short: as §1

Proteus vulgaris = test: MIC against Gram-negative bacteria: Proteus vulgaris; settings: 5×10^5 CFU/mL; for MIC (μg/mL) P. vulgaris / MIC against P. vulgaris: Proteus vulgaris
In short: as §1

[1] = 10 h cultivation at 37° C., two-fold serial dilution

Substance: PRT26 (CDSGPCKNSGFCSERWGSFSCDCPVGFGGKDCQ; listed as Homo sapiens)
- MIC (μg/mL) C. diversus (Citrobacter diversus; 96-well plate, 37° C., 10 h): 25 µg/mL
- MIC (μg/mL) E. cloacae (Enterobacter cloacae; 96-well plate, 37° C., 10 h): 25 µg/mL
- MIC (E. coli DH5α): 25 µg/mL
- MIC (μg/mL) M. catarrhalis (Moraxella catarrhalis; 96-well plate, 37° C., 10 h): 12.5 µg/mL
- MIC (μg/mL) S. marcescens (Serratia marcescens; 96-well plate, 37° C., 10 h): 25 µg/mL
- MIC (μg/mL) P. mirabilis (Proteus mirabilis; 96-well plate, 37° C., 10 h): 25 µg/mL
- MIC (μg/mL) K. pneumonia (Klebsiella pneumonia; 96-well plate, 37° C., 10 h): 12.5 µg/mL
- MIC (μg/mL) P. aeruginosa (Pseudomonas aeruginosa; 96-well plate, 37° C., 10 h): 25 µg/mL
- MIC (μg/mL) E. coli BL21 (E. coli BL21; 96-well plate, 37° C., 10 h): 12.5 µg/mL
- MIC (μg/mL) A. hydrophila (Aeromonas hydrophila; 96-well plate, 37° C., 10 h): 12.5 µg/mL
- MIC (μg/mL) P. vulgaris (Proteus vulgaris; 96-well plate, 37° C., 10 h): 12.5 µg/mL

Substance: PRT1233 (ISEPCPSYCSGHGDCISGVCFCDLGYTAAQGTCV; listed as Homo sapiens)
- MIC against C. diversus (Citrobacter diversus; 96-well plate, 37° C., 10 h): 12.5 µg/mL
- MIC against E. cloacae (Enterobacter cloacae; 96-well plate, 37° C., 10 h): 12.5 µg/mL
- MIC (E. coli DH5α): 25 µg/mL
- MIC against M. catarrhalis (Moraxella catarrhalis; 96-well plate, 37° C., 10 h): 50 µg/mL
- MIC against S. marcescens (Serratia marcescens; 96-well plate, 37° C., 10 h): 25 µg/mL
- MIC against P. mirabilis (Proteus mirabilis; 96-well plate, 37° C., 10 h): 25 µg/mL
- MIC against K. pneumonia (Klebsiella pneumonia; 96-well plate, 37° C., 10 h): 50 µg/mL
- MIC against P. aeruginosa (Pseudomonas aeruginosa; 96-well plate, 37° C., 10 h): 25 µg/mL
- MIC against E. coli BL21 (E. coli BL21; 96-well plate, 37° C., 10 h): 12.5 µg/mL
- MIC against A. hydrophila (Aeromonas hydrophila; 96-well plate, 37° C., 10 h): 50 µg/mL
- MIC against P. vulgaris (Proteus vulgaris; 96-well plate, 37° C., 10 h): 12.5 µg/mL

Substance: PRT735 (GEENCNVNNGGCAQKCQMVRGAVQCTCHTGYRLTEDGHTCQ; listed as Homo sapiens)
- MIC C. diversus (Citrobacter diversus; 96-well plate, 37° C., 10 h): 50 µg/mL
- MIC E. cloacae (Enterobacter cloacae; 96-well plate, 37° C., 10 h): 12.5 µg/mL
- MIC (E. coli DH5α): 12.5 µg/mL
- MIC M. catarrhalis (Moraxella catarrhalis; 96-well plate, 37° C., 10 h): 25 µg/mL
- MIC S. marcescens (Serratia marcescens; 96-well plate, 37° C., 10 h): 25 µg/mL
- MIC P. mirabilis (Proteus mirabilis; 96-well plate, 37° C., 10 h): 12.5 µg/mL
- MIC K. pneumonia (Klebsiella pneumonia; 96-well plate, 37° C., 10 h): 25 µg/mL
- MIC P. aeruginosa (Pseudomonas aeruginosa; 96-well plate, 37° C., 10 h): 12.5 µg/mL
- MIC E. coli BL21 (E. coli BL21; 96-well plate, 37° C., 10 h): 50 µg/mL
- MIC A. hydrophila (Aeromonas hydrophila; 96-well plate, 37° C., 10 h): 25 µg/mL
- MIC P. vulgaris (Proteus vulgaris; 96-well plate, 37° C., 10 h): 50 µg/mL

Substance: PRT1180 (DIDYCEPNPCQNGAQCYNRASDYFCKCPEDYEGKNCS; listed as Homo sapiens)
- MIC C. diversus (Citrobacter diversus; [1]): 25 µg/mL
- MIC E. cloacae (Enterobacter cloacae; [1]): 12.5 µg/mL
- MIC (E. coli DH5α): 50 µg/mL
- MIC M. catarrhalis (Moraxella catarrhalis; [1]): 12.5 µg/mL
- MIC S. marcescens (Serratia marcescens; [1]): 25 µg/mL
- MIC P. mirabilis (Proteus mirabilis; [1]): 25 µg/mL
- MIC K. pneumonia (Klebsiella pneumonia; [1]): 25 µg/mL
- MIC P. aeruginosa (Pseudomonas aeruginosa; [1]): 50 µg/mL
- MIC E. coli BL21 (E. coli BL21; [1]): 12.5 µg/mL
- MIC A. hydrophila (Aeromonas hydrophila; [1]): 50 µg/mL
- MIC P. vulgaris (Proteus vulgaris; [1]): 50 µg/mL

Substance: PRT1494 (KALCTPRCMNGGLCVTPGFCICPPGFYGVNCD; listed as Homo sapiens)
- MIC (μg/mL) C. diversus (Citrobacter diversus; 96-well plate, 37° C., 10 h): 25 µg/mL
- MIC (μg/mL) E. cloacae (Enterobacter cloacae; 96-well plate, 37° C., 10 h): 25 µg/mL
- MIC (E. coli DH5α): 25 µg/mL
- MIC (μg/mL) M. catarrhalis (Moraxella catarrhalis; 96-well plate, 37° C., 10 h): 25 µg/mL
- MIC (μg/mL) S. marcescens (Serratia marcescens; 96-well plate, 37° C., 10 h): 12.5 µg/mL
- MIC (μg/mL) P. mirabilis (Proteus mirabilis; 96-well plate, 37° C., 10 h): 12.5 µg/mL
- MIC (μg/mL) K. pneumonia (Klebsiella pneumonia; 96-well plate, 37° C., 10 h): 12.5 µg/mL
- MIC (μg/mL) P. aeruginosa (Pseudomonas aeruginosa; 96-well plate, 37° C., 10 h): 25 µg/mL
- MIC (μg/mL) E. coli BL21 (E. coli BL21; 96-well plate, 37° C., 10 h): 12.5 µg/mL
- MIC (μg/mL) A. hydrophila (Aeromonas hydrophila; 96-well plate, 37° C., 10 h): 12.5 µg/mL
- MIC (μg/mL) P. vulgaris (Proteus vulgaris; 96-well plate, 37° C., 10 h): 12.5 µg/mL

Substance: PRT1320 (PSNPCSHPDRGGCSENAECVPGSLGTHHCTCHKGWSGDGRVCV; listed as Homo sapiens)
- MIC against C. diversus (Citrobacter diversus; 96-well plate, 37° C., 10 h): 12.5 µg/mL
- MIC against E. cloacae (Enterobacter cloacae; 96-well plate, 37° C., 10 h): 25 µg/mL
- MIC (E. coli DH5α): 25 µg/mL
- MIC against M. catarrhalis (Moraxella catarrhalis; 96-well plate, 37° C., 10 h): 12.5 µg/mL
- MIC against S. marcescens (Serratia marcescens; 96-well plate, 37° C., 10 h): 12.5 µg/mL
- MIC against P. mirabilis (Proteus mirabilis; 96-well plate, 37° C., 10 h): 12.5 µg/mL
- MIC against K. pneumonia (Klebsiella pneumonia; 96-well plate, 37° C., 10 h): 12.5 µg/mL
- MIC against P. aeruginosa (Pseudomonas aeruginosa; 96-well plate, 37° C., 10 h): 25 µg/mL
- MIC against E. coli BL21 (E. coli BL21; 96-well plate, 37° C., 10 h): 12.5 µg/mL
- MIC against A. hydrophila (Aeromonas hydrophila; 96-well plate, 37° C., 10 h): 12.5 µg/mL
- MIC against P. vulgaris (Proteus vulgaris; 96-well plate, 37° C., 10 h): 50 µg/mL

Substance: PRT1108 (DLNECNSNPCQSNGECVELSSEKQYGRITGLPSSFSYHEASGYVCICQPGFTGIHCE; listed as Homo sapiens)
- MIC C. diversus (Citrobacter diversus; [1]): 12.5 µg/mL
- MIC E. cloacae (Enterobacter cloacae; [1]): 25 µg/mL
- MIC (E. coli DH5α): 50 µg/mL
- MIC M. catarrhalis (Moraxella catarrhalis; [1]): 25 µg/mL
- MIC S. marcescens (Serratia marcescens; [1]): 12.5 µg/mL
- MIC P. mirabilis (Proteus mirabilis; [1]): 12.5 µg/mL
- MIC K. pneumonia (Klebsiella pneumonia; [1]): 12.5 µg/mL
- MIC P. aeruginosa (Pseudomonas aeruginosa; [1]): 12.5 µg/mL
- MIC E. coli BL21 (E. coli BL21; [1]): 12.5 µg/mL
- MIC A. hydrophila (Aeromonas hydrophila; [1]): 25 µg/mL
- MIC P. vulgaris (Proteus vulgaris; [1]): 25 µg/mL

Source: patent publication US9833497B2, “Human originated EGF domain proteins and use of the same” (CHENGDU SOURCEBIO LIMITED-LIABILITY COMPANY, priority 2013, dated 2017)
